Data from publication PMC7136958, “Targeting the pregnane X receptor using microbial metabolite mimicry” (EMBO Molecular Medicine, 2020).

Tested on: RXR
Experiment: [11,12-3H(N)] 9-cis retinoic acid binding competition assay (RXR ligand binding), rat liver nuclear extracts
Conditions: 39.94 nM compound, 0.66 nM radioligand
Description: 8), 50 mM NaCl, 0.1 mM EDTA, 1 mM DTT, 1 mM PMSF, and 1% DMSO. The substrate is 3H-CoA (acetyl coenzyme A) and the incubation time is for 1 h at 30° C. The radioactivity in mixture is detected on washed filter paper using a scintillation counter. The Histone Deacetylase (HDAC) fluorescent activity assay (HDAC1-3) is based on the using 2X purified human enzyme mixed with the reaction buffer (50 mM Tris-HCl pH 8, 137 mM NaCl, 2.7 mM KCl, and 1 mM MgCl2, 1 mg/mL fresh BSA and 1% fresh DMSO) and then compounds (in 100% DMSO) are titrated in using Acoustic Technology.
The 2X HDAC substrate is a fluorogenic acetylated peptide from p53 (residues 379 - 38 2 RHKK(Ac)AMC) which is mixed in with the enzyme-compound complex and incubated for 1-2 h at 30 °C. In the development step, a proprietary developer with trichostatin A (or TMP269) is added to stop the reaction and to generate fluorescent color which is read using an EnVision Multilabel Plate Reader (Perkin Elmer) (Ex 360 nm/ Em 460 nm). For all enzyme activity assays, the percentage of enzyme activity (relative to DMSO controls) and IC50 values were calculated using GraphPad Prism 4 program (sigmoidal dose response equations).
Isolation of cell nuclei. Rat liver nuclear fraction was prepared from rat livers by the procedure established and optimized previously 19. […]

For `O=S(=O)(c1ccccc1)n1c(C(O)c2ccncc2)cc2ccccc21` (racemic) [FKK1], the “displacement of [3H]-9-cis-retinoic acid” value was “significant displacement”.
